# Test results as given in ChEMBL document CHEMBL3638593, “Macrocycles as factor XIa inhibitors” (2015).
# Target: Coagulation factor XI (Homo sapiens, UniProt P03951)
# Assay: In Vitro Assay: The effectiveness of compounds of the present invention as inhibitors of the coagulation Factors XIa, VIIa, IXa, Xa, XIIa, plasma kallikrein or thrombin, can be determined using a relevant purified serine protease, respectively, and an appropriate synthetic substrate. The rate of hydrolysis of the chromogenic or fluorogenic substrate by the relevant serine protease was measured both in the absence and presence of compounds of the present invention. […] A decrease in the rate of absorbance or fluorescence change in the presence of inhibitor is indicative of enzyme inhibition. Such methods are known to one skilled in the art.
# Chain of Coagulation factor XI (P03951 19-387 limits assumed): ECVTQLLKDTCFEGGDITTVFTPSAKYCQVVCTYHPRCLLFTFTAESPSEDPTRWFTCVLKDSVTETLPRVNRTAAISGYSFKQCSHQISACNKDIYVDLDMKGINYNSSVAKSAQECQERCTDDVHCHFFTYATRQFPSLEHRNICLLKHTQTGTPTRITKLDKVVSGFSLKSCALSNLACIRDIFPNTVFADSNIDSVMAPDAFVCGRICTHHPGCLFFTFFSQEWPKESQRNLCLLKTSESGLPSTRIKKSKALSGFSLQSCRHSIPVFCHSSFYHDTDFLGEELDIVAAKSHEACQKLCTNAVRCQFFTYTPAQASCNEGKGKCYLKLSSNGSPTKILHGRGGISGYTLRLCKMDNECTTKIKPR
# Chain of Coagulation factor XI (P03951 388-625 limits assumed): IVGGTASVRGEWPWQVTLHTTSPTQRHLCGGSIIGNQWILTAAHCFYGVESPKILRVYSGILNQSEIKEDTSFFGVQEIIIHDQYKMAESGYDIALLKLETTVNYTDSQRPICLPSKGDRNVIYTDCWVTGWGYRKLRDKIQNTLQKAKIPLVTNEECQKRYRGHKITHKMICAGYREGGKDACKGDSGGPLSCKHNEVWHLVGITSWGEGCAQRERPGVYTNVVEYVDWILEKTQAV
smiles,measurement,value
O=C(/C=C/c1cc(Cl)ccc1-n1cnnn1)N[C@H]1CCCCC(=O)Nc2cc3[nH]ncc3cc2-c2c[nH]c1n2,Ki,183 nM
